In US5437980A, “Phenanthridium dye staining of nucleic acids in living cells” (Molecular Probes, Inc., priority 1993, dated 1995):
“Also recorded” adds a separate entry of the source.

Columns and labels:
nucleic acids = settings: reduced ethidium, Bucana et al. (1986); cited from earlier work
[1] = test system: peripheral blood lymphocytes; assay: Staining of peripheral blood lymphocytes, fluorometer (Example 11); assay type: cell-based, goat; settings: for distribution of dye into nucleus of lymphocytes: on the scale of seconds
Experimental: Peripheral blood lymphocytes (PBL) are isolated from fresh heparinized goat blood and resuspended in buffer consisting of 135 mM NaCl, 5 mM KCl, 20 mM HEPES, 1 mM CaCl2, 1 mM MgCl2, pH 7.4 (HBSS+). The cells are resuspended to 10^6 mL (as determined by direct microscopic count using a standard hemocytometer) in a final volume of 3 mL in the above buffer in a quartz cuvette. 5-DAPP/LIVE dye stocks are prepared to final concentrations of 2 mM in DMSO. 3 μL of the octidium dye stock solution is injected into the cuvette to a final concentration of 2 μM. In a fluorometer, the sample is excited at 520 nm and fluorescence emission is monitored at 600 nm over the time required for the fluorescence signal to become stable. Hexidium, butidium and ethidium bromide are injected into separate samples of PBL to determine the relative rates of uptake for these stains. The volume of dye solution added to the cuvette is corrected by a factor relating the absorbance of the dye to the absorbance of a 2 mM octidium solution.

living cells [2] = assay: Entry into / staining of living cells, general; assay type: cell-based; settings: general summary; for entry into / staining of live cells: several types of cells
tissue culture cells = assay: Entry into / staining pattern of tissue culture cells; assay type: cell-based
Text: In some tissue culture cells, the pattern of staining is different from that observed in plant cells or bacteria. In the former case, cells are usually loaded with a brief pulse of dye, followed by a chase of buffered saline solution. These cells show a pattern of staining first in numerous intracellular compartments; e.g. lysosomes. In addition to staining these organelles first, the dyes also undergo a spectral shift to shorter wavelengths when associated with this "early-labeled compartment." If the same cells are exposed to pulses of higher concentrations of the 5-DAPP/LIVE dyes, the staining appears in the mitochondria (tubular structures that are labeled with rhodamine 123) and then, finally, in the nucleus, where it stains the nucleoli very brightly. Nucleoli are the most prominently stained area of higher eukaryotic cells, while the nuclei and cytosol usually stain in a hazy or punctate pattern in these cells. […] In plant tissues distinct nuclei tend to label uniformly, but there is frequently significant binding of the dye to cell walls. The plant cells are usually dark except for cell walls and nuclei. The characteristic binding morphology obtained using the 5-DAPP/LIVE dyes thus makes them useful in certain circumstances for identifying the type of cell in a mixed population of cells.

gram-positive bacteria [3] = assay: Staining of live gram-positive bacteria; assay type: cell-based; settings: general summary
DNA [4] = assay: Relative DNA binding affinity, YOYO-1 over 5-DAPP/LIVE
living cells [5] = settings: intact cell membrane; background; cited from earlier work
[6] = test system: free-living ciliate and flagellate protozoans; assay: Staining of protozoa (Example 7); assay type: cell-based; settings: 1 μL of 10 mM dye in 1 mL culture, 10 min, ambient temperature
Experimental: 1 μL of 10 mM the 5-DAPP/LIVE dye stock is added to 1 mL of protozoan culture. The medium is incubated for 10 min at ambient temperature. 15 μL of this preparation is mounted with dye between a coverglass and the slide. Using this procedure, the nuclei of most cells of the free-living ciliate and flagellate protozoans are stained under these conditions.

[7] = test system: epidermal tissue of the bulb, Alium spp.; assay: Staining of plant cell tissue (Example 6); assay type: cell-based; settings: 10 μM dye, 30 min, room temperature
Experimental: A small section of tissue from the bulb is removed with a razor blade. 0.5 mL of a 10 μM solution of the 5-DAPP/LIVE dye in distilled water is dispensed into a small glass dish. The epidermal tissue is cut into sections and placed in the dye solution. The tissue is stained for 30 min at room temperature in the dark then the tissue preparation is mounted in the presence of the dye between a coverglass and the slide.

Saccharomyces = assay: Staining of yeast (Example 5); assay type: cell-based; settings: 10 μM dye, 30 min, 37° C.
Experimental: Yeast cells are washed by centrifugation and then resuspended in a solution of 2% glucose and 10 mM Na-HEPES, pH 7.4 to a cell density of between 5×10^5 and 2×10^6 cells/mL optical density at 410 nm (previously calibrated with YPD agar plate colony counts). Sufficient 10 mM stock solution of the 5-DAPP/LIVE dye in DMSO is added to effect a final concentration of 10 μM of the dye in the medium. The suspension is incubated for 30 min at 37° C. then 15 μL are placed between a coverglass and the microscope slide. The cellular fluorescence is observed using fluorescein (long-pass emission) or rhodamine filter sets.

trypanosome = settings: Watkins, J. CHEM SOC. 3059 (1952); Watkins & Woolfe; cited from earlier work
gram-positive bacteria [8] = settings: mild conditions; application Ser. No. 08/047,683; cited from earlier work
Bacillus cereus = assay: Relative rate and extent of dye uptake into living Bacillus cereus (Example 2, FIG. 1); assay type: cell-based; settings: 2 μM dye, 23° C., 488 nm excitation, 600 nm emission
Experimental: FIG. 1. Relative Uptake of Dyes into Living Cells. Uptake of ethidium, butidium, hexidium and octidium by Bacillus cereus as described in Example 2.
Bacillus cereus is grown in nutrient broth to log phase, washed by centrifugation, and resuspended in water to a density of 5×10^6 cfu/mL (as determined in Example 1). One centimeter pathlength acrylic cuvettes containing 3 mL of cell suspension are placed in a fluorescence spectrophotometer equipped with a temperature regulated cuvette holder and magnetic stirrer. The suspensions are brought to 23° C. prior to dye addition. To a cuvette of 3 mL bacteria suspension is added 3 μL of 2 mM dye stock solutions in DMSO to give a final dye concentration of 2 μM to produce the maximum attainable fluorescence/cell at the 600 nm emission wavelength (determined as in Example 1). The peak fluorescence excitation and emission wavelengths are determined by scanning the spectrum of the dye in suspensions of Bacillus cereus incubated for 30 min with the dye. Fluorescence intensity of the suspensions is measured using 488 nm excitation and 600 nm emission wavelengths. Sampling of fluorescence is carried out at 5 or 10 Hz until the fluorescence signal appears to stabilize.

mushroom spores = assay: Staining of mushroom spores by fluorescence microscopy (Example 4); assay type: cell-based, agaric; settings: 10-20 μM dye, 30 min, room temperature
Experimental: Spores are rinsed from the gills on the underside of the cap of an agaric using a stream of distilled water. The spores are concentrated by centrifugation for 30 sec at 10,000 rpm in a microcentrifuge then a minimal volume of a 10-20 μM solution of the 5-DAPP/LIVE dye in distilled water is added. The suspension is incubated with the dye for 30 min at room temperature then a 15 μL aliquot of the suspension is mounted on between a coverglass and the slide for viewing in the presence of the dye. The cellular fluorescence is observed on a Zeiss Axioplan fluorescence microscope using fluorescein (long:pass emission) or rhodamine filter sets.

gram-negative bacteria = settings: mild conditions; application Ser. No. 08/047,683; cited from earlier work
[9] = test system: 3T3 mouse fibroblast cells; assay: Staining of nuclei in adherent cultured mammalian cells (Example 9); assay type: cell-based; settings: 2 μM dye; for staining distribution, chloroquine-treated cells: group 1, 300 μM chloroquine; for staining distribution, control cells: group 2, no chloroquine; for color of nucleus and cytoplasm: one half hour, long-pass fluorescein filter (red with rhodamine excitation)
Experimental: 3T3 mouse fibroblast cells are grown on coverslips in calf serum-supplemented DMEM medium. The coverslips of cells are washed in HBSS+. 5-DAPP/LIVE dye solutions are prepared to a final concentration of 2 μM in DMEM without serum. One group of 3T3 cells is treated with 300 μM chloroquine (group 1). These cells and control cells (group 2) not treated with chloroquine are incubated at 37° C. for 30 min. The two groups of cells are transferred to DMEM plus 5-DAPP/LIVE. The cells are incubated in the dye-containing medium for 30 min at room temperature and are subsequently washed in HBSS+and viewed by epifluorescence microscopy using a long-pass fluorescein or a rhodamine filter set.

DNA [10] = assay: DNA affinity (Kp) from fluorescence enhancement versus DNA concentration, microtiter plate reader; assay type: binding; settings: comparison in words, Table 1
Experimental: ^1 Fluorescence spectra obtained using a standard ratio of 200 μM
bp of DNA (bases of RNA) to 1 μM dye (standard solution) in a working
buffer (10 mM phosphate, 10% (v/v) ethanol, 1 mM EDTA and 100 mM NaCl), p
7.4. Fluorescence was measured in a Corning 96 U well plate and Cytofluor
sensitivity 4) as a function of DNA concentration from 0-100 μM at a
constant dye concentration of 0.5 μM.
^2 Fluorescence spectra obtained using the same method as above excep
the fluorescence was measured in a Cytofluor ™ 2300 (excitation filter
E (485/620); excitation D (620/640), and a sensitivity 4) as a function o
DNA concentration from 0-30 μM at a constant dye concentration of 0.1
^3 DNA affinity (Kp) determined by linear fitting of plots of
reciprocal fluorescence enhancement versus reciprocal DNA concentration,
as measured on a microtiter plate fluorescence reader (CytoFluor ™,

| Compound | membrane permeability (living cells [2]) | entry into / staining of live cells (living cells [2]) | staining of nuclei of protozoans [6] | cell wall / surface staining [7] | staining distribution and intensity (Saccharomyces) | rate of dye loading (Bacillus cereus) | distribution of dye into nucleus of lymphocytes [1] | also measured |
| --- | --- | --- | --- | --- | --- | --- | --- | --- |
| CCN1c2cc(N)ccc2-c2ccc(N)cc2C1c1ccccc1 (stereo not shown) [dihydrophenanthridine derivative] |  |  |  |  |  |  |  | nucleic acid binding (nucleic acids): does not bind to nucleic acids |
| CC[n+]1c(-c2ccccc2)c2cc(N)ccc2c2ccc(N)cc21 [ethidium bromide, reference compound] |  |  |  |  |  |  |  | increase in fluorescence over time ([1]; 2 μM dye, 520 nm excitation, 600 nm emission): essentially no increase in fluorescence signal over time |
| Nc1ccc2c(c1)c(-c1ccccc1)[n+](CCc1ccccc1)c1cc(N)ccc21 [phenethidium] | marked enhancement of membrane permeability in all systems | facilitates entry of the 5-DAPP dye into living cells, but at a rate that is typically slower than derivatives in which the substituent is a C4 to C8 alkyl group |  |  |  |  |  | time to enter tissue culture cells (tissue culture cells): ≥ 1 h; entry into gram positive bacteria (gram-positive bacteria [3]): enters gram positive bacteria |
| C[n+]1c(C=C2C=CN(CCC[N+](C)(C)CCC[N+](C)(C)CCCN3C=CC(=Cc4oc5ccccc5[n+]4C)c4ccccc43)c3ccccc32)oc2ccccc21 [YOYO-1, reference compound] | virtual impermeability |  |  |  |  |  |  | DNA binding affinity of YOYO-1 over 5-DAPP/LIVE (DNA [4]): hundred |
| CC[n+]1c(-c2ccccc2)c2cc(N)ccc2c2ccc(N)cc21 [ethidium, reference compound] |  | does not enter most live cells easily | octidium which is better than butidium and ethidium | more hazy surface staining | stains all yeast slightly with a pale red nucleus and hazy red cytoplasm | increases with carbon chain length | not ethidium | suitability for staining of nucleic acids in living cells (living cells [5]): usually not suitable for staining of nucleic acids in living cells in which the cell membrane is intact; trypanocidal effectiveness / therapeutic potential (trypanosome): superior to that of other 5-DAPP derivatives with longer alkyl chains; staining of live gram-positive bacteria (gram-positive bacteria [8]): does not effectively stain; fraction of spores entered (mushroom spores): less than 10%; staining of live gram-negative bacteria (gram-negative bacteria): does not effectively stain |
| CCCCCCCC[n+]1c(-c2ccccc2)c2cc(N)ccc2c2ccc(N)cc21 [octidium] | marked enhancement of membrane permeability in all systems | enters cell membranes quickly; also recorded: becomes bright with continued incubation | better than butidium and ethidium | more hazy surface staining occurs with ethidium and butidium than with hexidium or octidium | somewhat less bright than hexidium staining; also recorded: markedly less cytoplasmic staining than any of the other forms | increases with carbon chain length | virtually instantaneous | staining distribution, chloroquine-treated cells [9]: stained throughout, but with a greater relative intensity of staining in the nucleus; staining distribution, control cells [9]: relatively equal staining in the nucleus and cytoplasm; color of nucleus and cytoplasm [9]: orange; nuclear staining / staining [7]: stains identically to hexidium; fraction of yeast with stained nuclei (Saccharomyces): less than 100%; fraction of spores brightly stained (mushroom spores): about 10% |
| CCCC[n+]1c(-c2ccccc2)c2cc(N)ccc2c2ccc(N)cc21 [butidium] | limited permeability in most cells | enters live cells slowly and is usually not very bright | octidium which is better than butidium and ethidium | more hazy surface staining | more punctate cytoplasmic inclusions stained | increases with carbon chain length | virtually instantaneous | staining distribution, chloroquine-treated cells [9]: stained throughout, but with a greater relative intensity of staining in the nucleus; staining distribution, control cells [9]: relatively equal staining in the nucleus and cytoplasm; color of nucleus and cytoplasm [9]: orange; binding affinity versus longer chain versions (DNA [10]): higher binding affinity than the tested longer chain versions; fraction of spores brightly stained (mushroom spores): about 10%; staining of spores (in words) (mushroom spores): stains all spores |
| C[n+]1c(-c2ccccc2)c2cc(N)ccc2c2ccc(N)cc21 [methidium] |  |  |  |  |  |  |  | trypanocidal effectiveness / therapeutic potential (trypanosome): less effective than ethidium |
